Measurements reported in patent publication US20150056702A1, “METHOD AND KIT FOR CULTURING STEM CELLS” (China Medical University, priority 2013, published 2015).

What was measured:
Format in all cases: cell-based, mouse
Jak2 = test: Western blot assay, Jak2 protein in ES cells; conditions: for Jak2 Protein expression level: ES cells, control group = 100%
From the text: (§1) According to the known research at present, Jak2 and Stat3 proteins could be phosphorylated to form the active forms, and the Jak2-Stat3 signaling pathway will be activated when Jak2 and Stat3 were phosphorylated.
(§2) An experimental group medium (BP5 or BP10), a LIF-containing medium (without BP), and a control group medium (without BP) were used respectively to culture ES cells with an initial density of 1×10^4 per well in a 6-well culture dish. The medium was removed until the cells growth to be about 70 to 80% confluence. The proteins were extracted to conduct the Western blot assay by using rabbit anti-Jak2 antibody (Cell Signaling Technology), mouse anti-phospho-Jak2 antibody (Cell Signaling Technology), rabbit anti-Stat3 antibody (BD) and rabbit anti-phospho-Stat3 antibody (Cell Signaling Technology), to determine whether BP would affect the protein expression levels of the genes in the Jak-Stat3 signaling pathway.

Nanog = test: Immunofluorescence staining, Nanog in iPS cells; conditions: 72 hours, control group = 100%
From the text: (§3) Nanog and SSEA1 are also marker proteins of stem cells, and their expression levels could be measured by immunofluorescence staining to further confirm whether BP can effectively maintain the self-renewal and pluripotency of stem cells.
(§4) An experimental group medium (BP5, BP10, BP20 or BP40), a LIF-containing medium (without BP), and a control group medium (without BP) were used respectively in a 6-well culture dish which comprises a slide in each well to culture ES cells with an initial density of 1×10^4 per well for 72 hours. The medium was removed and the cells were washed with PBS. Next, PBS was removed, and then 4% paraformaldehyde was added to perform the fixation at room temperature for 10 minutes. Next, paraformaldehyde was removed, and then slides were washed with 0.1% Tween-20/1X PBS three times for 10 minutes each time. The 0.3% Tween-20/1X PBS was added and held at room temperature for 30 minutes to penetrate the cell membrane to benefit the dye entry. After the slides were washed three times with 0.1% Tween-20, 5% FBS/1×PBS was added to perform a blocking reaction at room temperature for 2 hours, and then reacting with the primary antibody [anti-Nanog (Novus) or anti-SSEA1 (Millipore)] at a dilution of 1:100 at room temperature overnight. Slides were then washed 5 times with 0.1% Tween-20, then reacting with the secondary antibody [FITC-conjugated anti-mouse IgG or TRITC-conjugated anti-rabbit IgG (Sigma-Aldrich)] at a dilution of 1:500. After washed with 0.1% Tween-20 for 10 minutes, slides were mounted with the DAPI-containing UltraCruz™ Mounting medium and observed using an inverted fluorescent microscope.
(§5) By using the above culture conditions, an experimental group medium (BP5, BP10, BP20 or BP40), a LIF-containing medium (without BP), and a control group medium (without BP) were used respectively to culture iPS cells. The staining of iPS cells was performed by using the steps described above.

SSEA1 = test: Immunofluorescence staining, SSEA1 in iPS cells; conditions: 72 hours, control group = 100%
From the text: as §3, §4, §5

Stat3 [1] = test: Real-time PCR, Stat3 mRNA in ES cells; conditions: for Stat3 Gene expression level: ES cells, control group = 100%
Procedure: An experimental group medium (BP5, BP10, BP20 or BP40) and a control group medium (without BP) were added respectively to perform the following steps. ES cells were cultured with an initial density of 1×10^4 per well in a 6-well culture dish. The medium was removed until the cells growth to be about 70 to 80% confluence, and then 1 ml TRIzol (Invitrogen) was added into each well. The cells were incubated for 5 minutes, and then was scraped by a spatula and placed into a 1.5 ml microtube to be lysed adequately. Chloroform (0.2 ml) was added into the microtubes. The mixture was shaken up and down for 15 seconds, and then incubated at room temperature for 2 to 3 minutes. Thereafter, the mixture was centrifuged at 12000 rpm at 4° C. for 15 minutes, and the supernatant was removed into another 1.5 ml microtube and isopropanol (0.5 ml) was added into the microtube with well mixing. The mixture was incubated at room temperature for 10 minutes and then centrifuged at 12000 rpm at 4° C. for 10 minutes. The supernatant was then removed. One ml of 70% ethanol containing DEPC.H2O was used to wash the remaining sediment. The sediment was centrifuged at 7500 rpm at 4° C. for 5 minutes. The supernatant was removed. The sediment was dried by vacuum suction. The dried samples were dissolved in about 0.01 to 0.02 ml of DEPC.H2O to obtain the experimental group RNA and control group RNA. Both groups were stored at −80° C.
The OD value of RNA samples in both groups obtained from the above Experiment I were measured at a wavelength of 260 nm (RNA: OD260=1 for a 40 μg/mL solution). Each RNA sample (2 μl) was added with RNA-free water until the volume of the sample reached 10 μl. Two μl oligo (dT) (100 μg/ml) was added into each sample, and the samples were incubated at 65° C. for 5 minutes. Then, the samples were immediately placed on ice and spun down. Next, 6.5 μl of a reaction solution [4 μl of 5× buffer+1 μl of 0.1 M DTT+1 μl of RNase out+0.5 μl of SSIII (Invitrogen)] was added into each of the samples, and the samples were incubated at 50° C. for about 30 to 60 minutes and at 75° C. for 15 minutes to obtain the experimental group cDNA and control group cDNA. Both groups were stored at −80° C.
This experiment was used to detect the expression levels of ES cell-related genes, i.e., Oct4 and Sox2, etc. First, 4 μl of the experimental group cDNA or control group cDNA was added into each well of a 96-well micro-reaction plate, and mixed with 6 μl of a reaction solution [0.5 μl of 6 μM forward primer+0.5 μl of 6 μM reverse primer+5 μl of SYBR Green PCR Master mix (Roche)], wherein the SYBR Green PCR Master mix included the reagents needed for Q-PCR, such as dNTPs, MgCl, Taq DNA polymerase and 2×SYBR® Green I solution. […] The cycle threshold (CT) values were measured. […]

Stat3 [2] = test: Western blot assay, Stat3 protein in ES cells; conditions: for Stat3 Protein expression level: ES cells, control group = 100%
From the text: as §1, §2

[3] = BP10 medium (about 10 μg BP/ml)
[4] = ES cell medium containing BP, result in words
[5] = BP20 medium (about 20 μg BP/ml)
[6] = BP40 medium (about 40 μg BP/ml)
[7] = LIF-containing medium (LIF 4 ng/ml, without BP)

CCCC=C1OC(=O)c2ccccc21 [BP, n-butylidenephthalide]
Jak2 Protein expression level (Jak2; BP5 medium (about 5 μg BP/ml)): 109% | Jak2 Protein expression level (Jak2; [3]): 134% | total protein expression and phosphorylated protein expression level of Jak2 (Jak2; [4]): increased significantly | Nanog expression level (Nanog; BP5 medium (about 5 μg BP/ml)): 142% | Nanog expression level (Nanog; [3]): 305% | Nanog expression level (Nanog; [5]): 358% | Nanog expression level (Nanog; [6]): 442% | SSEA1 expression level (SSEA1; BP5 medium (about 5 μg BP/ml)): 117% | SSEA1 expression level (SSEA1; [3]): 101% | SSEA1 expression level (SSEA1; [5]): 94% | SSEA1 expression level (SSEA1; [6]): 137% | Stat3 Gene expression level (Stat3 [1]; BP5 medium (about 5 μg BP/ml)): 169% | Stat3 Gene expression level (Stat3 [1]; [3]): 151% | mRNA expression level of Stat3 (Stat3 [1]; BP-containing ES cell medium (BP5 or BP10), result in words): significantly up-regulated | Stat3 Protein expression level (Stat3 [2]; BP5 medium (about 5 μg BP/ml)): 139% | Stat3 Protein expression level (Stat3 [2]; [3]): 165% | total protein expression and phosphorylated protein expression level of Stat3 (Stat3 [2]; [4]): increased significantly

LIF: multifunctional cell factor used to maintain pluripotency of stem cells; LIF-containing medium (4 ng/ml, without BP) as comparison
Jak2 Protein expression level (Jak2; [7]): 62% | Nanog expression level (Nanog; [7]): 386% | SSEA1 expression level (SSEA1; [7]): 230% | Stat3 Gene expression level (Stat3 [1]; [7]): 194% | Stat3 Protein expression level (Stat3 [2]; [7]): 140%
